Key:
Format in all cases: cell-based
[1] = test system: Alicyclobacillus acidoterrestris; assay: Minimal Inhibitory Concentration (MIC) assay, broth dilution in BAM, turbidity scored visually; settings: for Growth in BAM at pH 4.0 at 45° C.: turbidity after 72 hours
Description: The basic assay was performed by serially diluting the inhibitors using a two-fold dilution series in a nutrient broth. The dilutions provided inhibitor concentrations in the range of 0.025 ppm to 100 ppm. The nutrient broth used was the American Type Culture Collection Bacillus Agar Medium (BAM) (at pH 4.0 and at 45° C.) for the Alicyclobacillus acidoterrestris. All dilution series were inoculated with approximately 10,000 bacteria per 5 ml. broth tube of freshly cultured (using the same medium) cells per 5 ml. of test assay broth. In each assay, an inoculated sample of the broth without any inhibitor addition was used as a control. Growth was evaluated by visually assessing and scoring the development of turbidity in the broth after 72 hours. The results of the studies are summarized in Table 1 which gives the data from testing the effectiveness of the tetrahydroisohumulone, hexahydrocolupulone and colupulone in inhibiting Alicyclobacillus acidoterrestris. […] Hexahydrocolupulone inhibited the Alicyclobacillus acidoterrestris test strain at or above 50 ppm. Colupulone inhibited the Alicyclobacillus acidoterrestris test strain at or above 50 ppm.

Alicyclobacillus = assay: Inhibition of Alicyclobacillus in a solid or liquid medium (general statement)
[2] = test system: Alicyclobacillus acidocaldarius; assay: Minimal Inhibitory Concentration (MIC) assay, broth dilution in TSB, turbidity scored visually; settings: for Growth in TSB at pH 7.0: turbidity after 48 hours; for Concentration inhibiting the Alicyclobacillus acidocaldarius test strain (MIC): TSB, pH 7.0, 48 hours
Description: The basic assay was performed by serially diluting the inhibitors using a two-fold dilution series in a nutrient broth. The dilutions provided inhibitor concentrations in the range of 0.025 ppm to 100 ppm. The nutrient broth used was trypticase soy broth (TSB) (at pH 7.0) for the Alicyclobacillus acidocaldarius. All dilution series were inoculated with approximately 10,000 bacteria per 5 ml. of broth using freshly cultured (using the same medium) cells per 5 ml. of test assay broth. In each assay, an inoculated sample of the broth without any inhibitor addition was used as a control. Growth was evaluated by visually assessing and scoring the development of turbidity in the broth after 48 hours. The results of the studies are summarized in Table 2 which gives the data from testing the effectiveness of the tetrahydroisohumulone and hexahydrocolupulone in inhibiting Alicyclobacillus acidocaldarius. […] Hexahydrocolupulone inhibited the Alicyclobacillus acidocaldarius test strain at or above 0.05 ppm.

SMILES	Growth in BAM at pH 4.0 at 45° C. ([1]; 0.025 ppm)	Growth in BAM at pH 4.0 at 45° C. ([1]; 0.05 ppm)	Growth in BAM at pH 4.0 at 45° C. ([1]; 0.1 ppm)	Growth in BAM at pH 4.0 at 45° C. ([1]; 0.2 ppm)	Growth in BAM at pH 4.0 at 45° C. ([1]; 0.4 ppm)	Growth in BAM at pH 4.0 at 45° C. ([1]; 0.8 ppm)	Growth in BAM at pH 4.0 at 45° C. ([1]; 1.6 ppm)	Growth in BAM at pH 4.0 at 45° C. ([1]; 3.125 ppm)	Growth in BAM at pH 4.0 at 45° C. ([1]; 6.25 ppm)	Growth in BAM at pH 4.0 at 45° C. ([1]; 12.5 ppm)	Growth in BAM at pH 4.0 at 45° C. ([1]; 25 ppm)	Growth in BAM at pH 4.0 at 45° C. ([1]; 50 pm)	Growth in BAM at pH 4.0 at 45° C. ([1]; 100 ppm)	Concentration effective in inhibiting Alicyclobacillus (Alicyclobacillus) [ppm]	Growth in TSB at pH 7.0 ([2]; 0.025 ppm)	Growth in TSB at pH 7.0 ([2]; 0.05 ppm)	Growth in TSB at pH 7.0 ([2]; 0.1 ppm)	Growth in TSB at pH 7.0 ([2]; 0.2 ppm)	Growth in TSB at pH 7.0 ([2]; 0.4 ppm)	Growth in TSB at pH 7.0 ([2]; 0.8 ppm)	also measured
CC(C)CCC(=O)C1(O)C(O)=C(C(=O)CC(C)C)C(=O)C1CCC(C)C (stereo not shown) [Tetrahydroisohumulone, tetrahydroisohumulone]	++++ growth	++++ growth	++++ growth	++++ growth	++++ growth	++++ growth	++++ growth	++++ growth	++++ growth	++++ growth	No growth	No growth	No growth	≥ 3	++++ growth	++++ growth	++++ growth	++++ growth	++++ growth	++++ growth	Concentration inhibiting the Alicyclobacillus acidoterrestris test strain (MIC) ([1]; BAM, pH 4.0, 45° C., 72 hours): ≥ 25 ppm; Growth in TSB at pH 7.0 ([2]; 1.6 ppm): ++++ growth; Growth in TSB at pH 7.0 ([2]; 3.125 ppm): No growth; Growth in TSB at pH 7.0 ([2]; 6.25 ppm): No growth; Growth in TSB at pH 7.0 ([2]; 12.5 ppm): No growth; Growth in TSB at pH 7.0 ([2]; 25 ppm): No growth; Growth in TSB at pH 7.0 ([2]; 50 ppm): No growth; Growth in TSB at pH 7.0 ([2]; 100 ppm): No growth; Concentration inhibiting the Alicyclobacillus acidocaldarius test strain (MIC) [2]: ≥ 3.125 ppm
CC(C)CCC1=C(O)C(C(=O)C(C)C)=C(O)C(CCC(C)C)(CCC(C)C)C1=O [Hexahydrocolupulone, hexahydrocolupulone]	++++ growth	++++ growth	++++ growth	++++ growth	++++ growth	++++ growth	++++ growth	++++ growth	++++ growth	++++ growth	++++ growth	No growth	No growth	≥ 0.05	++ growth	No growth	No growth	No growth	No growth	No growth	Growth in TSB at pH 7.0 ([2]; 1.6 ppm): No growth; Growth in TSB at pH 7.0 ([2]; 3.125 ppm): No growth; Growth in TSB at pH 7.0 ([2]; 6.25 ppm): No growth; Growth in TSB at pH 7.0 ([2]; 12.5 ppm): No growth; Growth in TSB at pH 7.0 ([2]; 25 ppm): No growth; Growth in TSB at pH 7.0 ([2]; 50 ppm): No growth; Growth in TSB at pH 7.0 ([2]; 100 ppm): No growth; Concentration inhibiting the Alicyclobacillus acidocaldarius test strain (MIC) [2]: ≥ 0.05 ppm
CC(C)=CCC1=C(O)C(C(=O)C(C)C)=C(O)C(CC=C(C)C)(CC=C(C)C)C1=O [Colupulone, colupulone]	++++ growth	++++ growth	++++ growth	++++ growth	++++ growth	++++ growth	++++ growth	++++ growth	++++ growth	++++ growth	++++ growth	No growth	No growth	–	–	–	–	–	–	–	–

Source: patent publication US8273386B2, “Use of hop acids in fruit juices, fruit juice concentrates and other beverages to inhibit Alicyclobacillus bacteria” (MillerCoors LLC, priority 2004, dated 2012)
